Entries after “also recorded” stand apart in the source; their conditions may differ. Like-named read-outs stand apart in the source and are kept apart here. Where a SMILES comes first, the peptide text is derived from it. [ ]: non-standard residue; d: D form. The star is where a group is joined. Hexanoyl = CCCCCC(=O)*; Ahx = NCCCCCC(=O)O
Tests used:
[1] = Serum metabolism of peptides in rat serum; format: in vitro ADME; conditions: male, Sprague Dawley, rat, rat serum
Experimental: Four month old male Sprague Dawley rats were used as the blood source for the metabolism studies. Blood was collected from left/right jugular veins of the rats using sterile catheters. After a 30 minute incubation on ice, the blood was centrifuged at 1000 rpm for 15 min to separate the serum. Serum was then transferred to clean tubes and stored at −20° C. until use.
Except for dihexa all drug solutions were prepared in HPLC grade water at 5 mg/ml. Stock drugs were kept in powder form and stored at −20° C. Serum metabolism experimental procedure and analysis. Rat blood serum samples were pre-equilibrated at 37° C. and then 10 μL (50 μg) of each drug solution was added to 90 μL of rat serum in 1.5 mL Eppendorf tube maintained at 37° C. At specified time intervals, metabolism was terminated by precipitating proteins with the addition of 1 ml of a solution of acetonitrile (ACN) and acetic acid (9:1, v/v). The terminated reaction mixture was stored in refrigerator (5° C.) overnight and centrifuged (14,000 rpm) for 30 min to remove precipitated proteins. The separated supernatant was dried in vacuum concentrator. The dried samples were reconstituted using 200 μL HPLC mobile phase (10% v/v ACN in water), vortexed briefly, and subjected to HPLC separation and analysis. A serum blank experiment to detect any interfering peaks in the HPLC chromatogram was performed by in an identical manner except that no drug was added. Zero time values for each drug candidate were established by first treating the serum with ACN, processing the sample as described above, adding drug, and then performing HPLC analysis.
The degradation rate of drug was determined by measuring the decrease in area under curve (AUC) at the retention time of drug over time. The AUC obtained from the zero time experiment was considered to represent the “100%” drug concentration and was used to determine the decreased drug concentration at each specified time interval. The semi-logarithmic plot of drug concentration vs. time was generated to determine degradation kinetic constant (k) of the tested drug. The half-life of drug was (t1/2) was calculated by 0.693/k.
Analysis of samples was performed using an HPLC system. The system consisted of a communications bus module, pumps, and a photodiode array detector. Separation was achieved using a C18 (250 mm×4.6 mm id., 5 μm particle size) reverse phase column. The column temperature was set at 40° C. The mobile phase consisted of a mixture of ACN and water with 0.1% TFA and was degassed by ultrasonication. Samples were introduced by manual mode with an injection volume of 250 μL. The drug was eluted with a flow rate of 1 mL/min and detected by PDA detector at […] wavelengths of 215 and 280 nm.

in vitro = conditions: male, rat, microsomes, pH 7.38
scopolamine treated rats = test: Morris water maze, scopolamine amnesia model; format: in vivo, rat; conditions: for mean latency to find the pedestal: Dihexa, Hinge 300 pmol, scopolamine 70 nmol
Experimental: Swim speed was determined from these values.

hippocampal neurons [2] = test: H2O2 oxidative stress in dissociated hippocampal neurons; format: cell-based; conditions: 100 μM H2O2 24 hrs +/− HGF 5 ng/ml and/or Dihexa
Experimental: FIG. 47. […] Dissociated hippocampal neurons were treated with 100 μM H2O2 for 24 hrs+/−HGF at sub-threshold concentrations 5 ng/ml and or Dihexa at 2 different concentrations 10^−8M and […]. (*p<0.05,** p<0.01; Mean+/−SEM).

[3] = Blood stability in heparinized rat blood; format: in vitro ADME; conditions: rat
Experimental: At the end of each incubation, 20 μL of […]

hippocampal neurons [4] = test: Dendritic spine counts (spinogenesis) in mRFP-β-actin transfected dissociated hippocampal neurons; format: cell-based, rat
hippocampal neurons [5] = test: Whole-cell recordings of mEPSCs in dissociated hippocampal neurons; format: cell-based, rat; conditions: 10^−12 M, 5 days
[6] = scopolamine icv, dihexa icv 1 nmol

Work on `CCCCCC(=O)N[C@@H](Cc1ccc(O)cc1)C(=O)N[C@H](C(=O)NCCCCCC(N)=O)[C@@H](C)CC` [Dihexa, N-hexanoic-Tyr-Ile-(6)-aminohexanoic amide] (Hexanoyl-Tyr-Ile-[Ahx]-NH2) yielded a half-life at 0.5 mg/mL ([1]; 37° C., Mean +/− SD, N = 3, read-out: Half-Life (min), serum stability) of 336 min, a half-life at 0.5 mg/mL ([1]; read-out: t1/2 in rat serum) of 330 min and a half-life at 5 µM (in vitro) of 8.49 h. For the same compound, the microsomal CLint at 5 µM (in vitro) was 2.72 µL/min/mg, the “mean latency to find the pedestal” value (scopolamine treated rats; day one of training, icv) was 115.2 s and the “time spent in the target quadrant, day 9 probe trial” value (“time spent in the target quadrant” for short) (scopolamine treated rats; dihexa at its highest dose, icv, ip and oral delivery) was “increased the time spent in the target quadrant”. The “time spent in the target quadrant” value (scopolamine treated rats; dihexa ip 0.05, 0.25, 0.50 mg/kg) was “Each of the treatment groups was different than the scopolamine”, the “time spent in the target quadrant” value (scopolamine treated rats; dihexa oral 1.25 and 2.0 mg/kg) was “Both of the treatment groups were different than the scopolamine” and the “mean latency to find the pedestal” value (scopolamine treated rats; final day of training (day 8), icv) was 62.3 s. For the same compound, the “mean latency to find the pedestal” value (scopolamine treated rats; fourth day of training, icv) was 63.0 s, the “latency to escape, Morris water maze (FIG. 21)” value (scopolamine treated rats; i.c.v. injections, 8 days of training) was “show rapid facilitation of the task” and the “latency to find the pedestal in the water maze” value (“latency … in the water maze” below) (scopolamine treated rats; scopolamine icv, Dihexa ICV 10 pmoles (low dose)) was “not 10 pmoles”. The “latency … in the water maze” value (scopolamine treated rats; scopolamine icv, Dihexa ICV 100 pmoles (high dose), daily, 8 days) was “reversed scopolamine-dependent learning deficits; also recorded: completely overcome the scopolamine deficits”, the “latency … in the water maze” value (scopolamine treated rats; scopolamine icv, Dihexa oral 1.25 mg/kg/day (low dose)) was “partially reversed” and the “latency … in the water maze” value (scopolamine treated rats; scopolamine icv, Dihexa oral 2 mg/kg/day (high dose), 2 mg/kg/day) was “no different than controls; also recorded: completely overcome the scopolamine deficits”. The “latency … in the water maze” value (scopolamine treated rats; scopolamine icv, Dihexa oral 2 mg/kg/day (high dose), listed as dihexa, 2 mg/kg/day) was “indistinguishable from vehicle controls; also recorded: completely reversed the scopolamine-dependent learning deficit”, the “latency to find the submerged platform in the Morris water maze” value (“latency to find the submerged platform” for short) (scopolamine treated rats; scopolamine icv, dihexa icv 0.1 nmol) was “significantly improved performance when compared to the scopolamine group on days 5-8” and the “latency to find the submerged platform” value (scopolamine treated rats; [6]) was “significantly improved performance; also recorded: indistinguishable from the vehicle control group; also recorded: all time points for the 1 nmol dihexa group were different from the scopolamine group”. For the same compound, the “time spent in the target quadrant” value (scopolamine treated rats; [6]) was “vehicle control groups were not different”, the “latency to find the submerged platform” value (scopolamine treated rats; scopolamine icv, dihexa ip 0.05 mg/kg) was “not different than the scopolamine group” and the “latency to find the submerged platform” value (scopolamine treated rats; scopolamine icv, dihexa ip 0.25 mg/kg) was “different than the scopolamine”. The “latency to find the submerged platform” value (scopolamine treated rats; scopolamine icv, dihexa ip 0.50 mg/kg, 0.5 mg/kg) was “indistinguishable from vehicle controls; also recorded: different than the scopolamine; also recorded: not different than the vehicle control group”, the “protection of neurons from oxidative stress” value (hippocampal neurons [2]) was “act synergistically to protect neurons; also recorded: protects neurons from oxidative stress” and the “stable in the blood” value [3] was “over 5 hours”. For the same compound, the “increase in the number of spines” value (hippocampal neurons [4]; 10^−12 M, 5 day treatment, vs vehicle) was roughly 3 fold, the “mean spine numbers per 50 μm dendrite length” value (hippocampal neurons [4]; 10^−12 M, acute 30 minute application on DIV12) was 23.9 spines per 50 μm dendrite leng and the “mean spine numbers per 50 μm dendrite length” value (hippocampal neurons [4]; neurons transfected with mRFP-β-actin alone, HGF 10 ng/ml, Dihexa or Nle1-AngIV 10^−12 M, 48 hours) was 21.8 spines per 50 μm dendrite leng. The “mean spine numbers per 50 μm dendrite length” value (hippocampal neurons [4]; neurons transfected with mRFP-β-actin and shMet (c-Met knock-down), HGF 10 ng/ml, Dihexa or Nle1-AngIV 10^−12 M) was 12.0 spines per 50 μm dendrite leng, the “frequency of AMPA-mediated mEPSCs” value (hippocampal neurons [5]) was 4.82±0.34 Hz and the “increase in mEPSC frequency over control” value (hippocampal neurons [5]) was 1.6 fold.

— US9051351B2, “Hepatocyte growth factor mimics as therapeutic agents” (Washington State University, priority 2011, dated 2015)
